From patent publication US12365692B2, “6-hydroxy-8-oxatricyclo[3.2.1.02,4]octane-2-carboxamide derivatives for inducing chondrogenesis for treating joint damage” (NOVARTIS AG, priority 2018, dated 2025)
pIC50: −log10 of the molar value.

System: ALP in NHAC (normal human articular chondrocytes)
Experiment: Alkaline Phosphatase (ALP) activity assay: ALP staining and quantitation in NHACs (prevention of chondrocyte hypertrophy)
Assay type: cell-based
Conditions: Chondrocyte, 288 h, human IL-1 beta 10 ng/mL, 12 days; for pIC50: Fast Blue RR staining, high content imaging; for Emax: read-out: ALP in NHAC (% Efficacy)
Outline: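 NHACs were plated with test compound in DMEM containing 10% FBS, and human IL-1 beta was added 5 h later at 10 ng/mL final. Cultures were kept 12 days at 37° C, 5% CO2. Cells were then fixed, ALP-stained with Fast Blue RR/Naphthol AS-MX, and hypertrophic cells were imaged and quantified by high-content imaging.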

## COc1ccc(C(F)(F)F)cc1NC(=O)[C@]12C[C@@]1(c1cn(C)nc1C(F)(F)F)[C@H]1O[C@@H]2C[C@@H]1O (racemic) [Example 62, rac-(1R,2R,4S,5R,6S)-6-hydroxy-N-(2-methoxy-5-(trifluoromethyl)phenyl)-4-(1-methyl-3-(trifluoromethyl)-1H-pyrazol-4-yl)-8-oxatricyclo[3.2.1.02,4]octane-2-carboxamide]
  pIC50: < 4.52
  Emax: 26%

## Cn1cc([C@@]23C[C@]2(C(=O)Nc2cc(C(F)(F)F)cc(C(F)(F)F)c2)[C@H]2C[C@H](O)[C@@H]3O2)c(C(F)(F)F)n1 (racemic) [Example 63, rac-(1R,2R,4S,5R,6S)—N-(3,5-bis(trifluoromethyl)phenyl)-6-hydroxy-4-(1-methyl-3-(trifluoromethyl)-1H-pyrazol-4-yl)-8-oxatricyclo[3.2.1.02,4]octane-2-carboxamide]
  pIC50: 4.54
  Emax: 56%

## Cn1cc([C@@]23C[C@]2(C(=O)Nc2ccc(N4CCOCC4)c(C(F)(F)F)c2)[C@H]2C[C@H](O)[C@@H]3O2)c(C(F)(F)F)n1 (racemic) [Example 64, rac-(1R,2R,4S,5R,6S)-6-hydroxy-4-(1-methyl-3-(trifluoromethyl)-1H-pyrazol-4-yl)-N-(4-morpholino-3-(trifluoromethyl)phenyl)-8-oxatricyclo[3.2.1.02,4]octane-2-carboxamide]
  pIC50: < 4.52
  Emax: 28%

## CCOc1ccc(NC(=O)[C@]23C[C@@]2(c2cn(C)nc2C(F)(F)F)[C@H]2O[C@@H]3C[C@@H]2O)cc1C(F)(F)F (racemic) [Example 65, rac-(1R,2R,4S,5R,6S)—N-(4-ethoxy-3-(trifluoromethyl)phenyl)-6-hydroxy-4-(1-methyl-3-(trifluoromethyl)-1H-pyrazol-4-yl)-8-oxatricyclo[3.2.1.02,4]octane-2-carboxamide]
  pIC50: 4.92
  Emax: 84%

## O=C(Nc1cccc(C(F)(F)F)c1)[C@]12C[C@@]1(c1ccnc(C(F)(F)F)c1)[C@H]1O[C@@H]2C[C@@H]1O (racemic) [Example 66, rac-(1R,2R,4S,5R,6S)-6-hydroxy-N-(3-(trifluoromethyl)phenyl)-4-(2-(trifluoromethyl)pyridin-4-yl)-8-oxatricyclo[3.2.1.02,4]octane-2-carboxamide]
  pIC50: 4.62
  Emax: 62%

## O=C(Nc1cccc(C(F)(F)F)c1)[C@]12C[C@@]1(c1cccc(C(F)(F)F)c1)[C@H]1O[C@@H]2C[C@@H]1O (racemic) [Example 67, rac-(1R,2R,4S,5R,6S)-6-hydroxy-N,4-bis(3-(trifluoromethyl)phenyl)-8-oxatricyclo[3.2.1.02,4]octane-2-carboxamide]
  pIC50: 4.57
  Emax: 54%

## Cn1cc([C@@]23C[C@]2(C(=O)Nc2ccc(C#N)c(C(F)(F)F)c2)[C@H]2C[C@H](O)[C@@H]3O2)c(C(F)(F)F)n1 (racemic) [Example 68, rac-(1R,2R,4S,5R,6S)—N-(4-cyano-3-(trifluoromethyl)phenyl)-6-hydroxy-4-(1-methyl-3-(trifluoromethyl)-1H-pyrazol-4-yl)-8-oxatricyclo[3.2.1.02,4]octane-2-carboxamide]
  pIC50: < 4.52
  Emax: 50%

## Cn1cc([C@@]23C[C@]2(C(=O)Nc2cc(C(F)(F)F)ccc2C#N)[C@H]2C[C@H](O)[C@@H]3O2)c(C(F)(F)F)n1 (racemic) [Example 69, rac-(1R,2R,4S,5R,6S)—N-(2-cyano-5-(trifluoromethyl)phenyl)-6-hydroxy-4-(1-methyl-3-(trifluoromethyl)-1H-pyrazol-4-yl)-8-oxatricyclo[3.2.1.02,4]octane-2-carboxamide]
  pIC50: 5.74
  Emax: 88%

## COc1cc([C@@]23C[C@]2(C(=O)Nc2ccc(Cl)c(C(F)(F)F)c2)[C@H]2C[C@H](O)[C@@H]3O2)ccn1 (racemic) [Example 70, rac-(1R,2R,4S,5R,6S)—N-(4-chloro-3-(trifluoromethyl)phenyl)-6-hydroxy-4-(2-methoxypyridin-4-yl)-8-oxatricyclo[3.2.1.02,4]octane-2-carboxamide]
  pIC50: < 4.52
  Emax: 39%
